Reference: publication PMC5118871 (Molecular microbiology, 2016)

T1: LmOpuCA tandem CBS domains (residues 247–371) (Listeria monocytogenes, UniProt Q9KHT9)
T1 sequence (Q9KHT9 247-371): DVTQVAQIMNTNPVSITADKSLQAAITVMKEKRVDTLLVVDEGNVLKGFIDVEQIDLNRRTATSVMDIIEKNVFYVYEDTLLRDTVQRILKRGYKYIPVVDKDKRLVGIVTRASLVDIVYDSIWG

B1: L. monocytogenes OpuCA (LmOpuCA) tandem CBS domains (residues 247–371) (domain or fragment, UniProt Q9KHT9 247-371, looked up)
chain: T1 sequence (Q9KHT9 247-371)

Assays:
[1] = biological target: T1, LmOpuCA tandem CBS domains (residues 247–371); test: X-ray crystal structure, […] Å, crystal soaked with c-di-AMP; type: binding; settings: one c-di-AMP per dimer, at the dimer interface; pH 9.0
[2] = biological target: the molecule itself; test: crystal structure

Row | Molecule | X-ray crystal structure, 2.9 Å, crystal soaked with c-di-AMP [1] | stoichiometry N [2]
1 | Nc1ncnc2c1ncn2[C@@H]1O[C@@H]2COP(=O)(O)O[C@H]3[C@@H](O)[C@H](n4cnc5c(N)ncnc54)O[C@@H]3COP(=O)(O)O[C@H]2[C@H]1O [c-di-AMP] | We observed clear electron density for one c-di-AMP molecule bound to the OpuCA dimer | 
2 | B1 |  | 2
